From patent US8192962B2, “Processes for detecting toxic substances” (Daikin Industries, Ltd., priority 2001, dated 2012)

Test system: Genes belonging to other category
Experiment: DNA chip mRNA expression in yeast, genes belonging to other category (Table 9)
Assay type: cell-based, Saccharomyces cerevisiae S288C
In short: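 Measured as treated-to-untreated fluorescence ratio on a full-genome yeast DNA chip. Cells (S288C, YPD, 25° C.) were exposed in log phase for two hours to one chemical, dosed to curb growth without killing.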

[Cl][Pb][Cl] [(4), PbCl2]
The level of expressed mRNA in the presence of chemical substance/The level of expressed mRNA in the absence of chemical substance (yeast gene YKL013C): 1.1 | The level of expressed mRNA in the presence of chemical substance/The level of expressed mRNA in the absence of chemical substance (yeast gene YKL039W): 0.8 | The level of expressed mRNA in the presence of chemical substance/The level of expressed mRNA in the absence of chemical substance (yeast gene YKL041W): 1.0 | The level of expressed mRNA in the presence of chemical substance/The level of expressed mRNA in the absence of chemical substance (yeast gene YKL096W): 1.6 | The level of expressed mRNA in the presence of chemical substance/The level of expressed mRNA in the absence of chemical substance (yeast gene YKL165C): 0.6 | The level of expressed mRNA in the presence of chemical substance/The level of expressed mRNA in the absence of chemical substance (yeast gene YKL193C): 1.4 | The level of expressed mRNA in the presence of chemical substance/The level of expressed mRNA in the absence of chemical substance (yeast gene YLR120C): 1.6 | The level of expressed mRNA in the presence of chemical substance/The level of expressed mRNA in the absence of chemical substance (yeast gene YLR136C): 3.3 | The level of expressed mRNA in the presence of chemical substance/The level of expressed mRNA in the absence of chemical substance (yeast gene YLR178C): 4.6 | The level of expressed mRNA in the presence of chemical substance/The level of expressed mRNA in the absence of chemical substance (yeast gene YLR250W): 1.4 | The level of expressed mRNA in the presence of chemical substance/The level of expressed mRNA in the absence of chemical substance (yeast gene YLR327C): 8.2 | The level of expressed mRNA in the presence of chemical substance/The level of expressed mRNA in the absence of chemical substance (yeast gene YLR356W): 1.2 | The level of expressed mRNA in the presence of chemical substance/The level of expressed mRNA in the absence of chemical substance (yeast gene YLR362W): 3.0 | The level of expressed mRNA in the presence of chemical substance/The level of expressed mRNA in the absence of chemical substance (yeast gene YLR391W): 0.8 | The level of expressed mRNA in the presence of chemical substance/The level of expressed mRNA in the absence of chemical substance (yeast gene YLR429W): 0.9 | The level of expressed mRNA in the presence of chemical substance/The level of expressed mRNA in the absence of chemical substance (yeast gene YMR004W): 1.3 | The level of expressed mRNA in the presence of chemical substance/The level of expressed mRNA in the absence of chemical substance (yeast gene YMR094W): 1.7 | The level of expressed mRNA in the presence of chemical substance/The level of expressed mRNA in the absence of chemical substance (yeast gene YMR104C): 2.6 | The level of expressed mRNA in the presence of chemical substance/The level of expressed mRNA in the absence of chemical substance (yeast gene YMR219W): 0.7 | The level of expressed mRNA in the presence of chemical substance/The level of expressed mRNA in the absence of chemical substance (yeast gene YMR226C): 1.6 | The level of expressed mRNA in the presence of chemical substance/The level of expressed mRNA in the absence of chemical substance (yeast gene YMR275C): 0.6 | The level of expressed mRNA in the presence of chemical substance/The level of expressed mRNA in the absence of chemical substance (yeast gene YMR276W): 0.7 | The level of expressed mRNA in the presence of chemical substance/The level of expressed mRNA in the absence of chemical substance (yeast gene YMR314W): 1.3 | The level of expressed mRNA in the presence of chemical substance/The level of expressed mRNA in the absence of chemical substance (yeast gene YNL006W): 1.5 | The level of expressed mRNA in the presence of chemical substance/The level of expressed mRNA in the absence of chemical substance (yeast gene YNL007C): 0.8 | The level of expressed mRNA in the presence of chemical substance/The level of expressed mRNA in the absence of chemical substance (yeast gene YNL093W): 4.5 | The level of expressed mRNA in the presence of chemical substance/The level of expressed mRNA in the absence of chemical substance (yeast gene YNL333W): 2.3 | The level of expressed mRNA in the presence of chemical substance/The level of expressed mRNA in the absence of chemical substance (yeast gene YNR010W): 2.8 | The level of expressed mRNA in the presence of chemical substance/The level of expressed mRNA in the absence of chemical substance (yeast gene YNR069C): 0.4 | The level of expressed mRNA in the presence of chemical substance/The level of expressed mRNA in the absence of chemical substance (yeast gene YOL013C): 1.5 | The level of expressed mRNA in the presence of chemical substance/The level of expressed mRNA in the absence of chemical substance (yeast gene YOL164W): 1.5 | The level of expressed mRNA in the presence of chemical substance/The level of expressed mRNA in the absence of chemical substance (yeast gene YOR036W): 1.6 | The level of expressed mRNA in the presence of chemical substance/The level of expressed mRNA in the absence of chemical substance (yeast gene YOR117W): 0.8 | The level of expressed mRNA in the presence of chemical substance/The level of expressed mRNA in the absence of chemical substance (yeast gene YOR124C): 0.8 | The level of expressed mRNA in the presence of chemical substance/The level of expressed mRNA in the absence of chemical substance (yeast gene YOR132W): 2.8 | The level of expressed mRNA in the presence of chemical substance/The level of expressed mRNA in the absence of chemical substance (yeast gene YOR157C): 1.3 | The level of expressed mRNA in the presence of chemical substance/The level of expressed mRNA in the absence of chemical substance (yeast gene YOR181W): 1.4 | The level of expressed mRNA in the presence of chemical substance/The level of expressed mRNA in the absence of chemical substance (yeast gene YOR185C): 1.1 | The level of expressed mRNA in the presence of chemical substance/The level of expressed mRNA in the absence of chemical substance (yeast gene YOR198C): 1.0 | The level of expressed mRNA in the presence of chemical substance/The level of expressed mRNA in the absence of chemical substance (yeast gene YOR259C): 0.9 | The level of expressed mRNA in the presence of chemical substance/The level of expressed mRNA in the absence of chemical substance (yeast gene YOR261C): 0.9 | The level of expressed mRNA in the presence of chemical substance/The level of expressed mRNA in the absence of chemical substance (yeast gene YOR288C): 1.1 | The level of expressed mRNA in the presence of chemical substance/The level of expressed mRNA in the absence of chemical substance (yeast gene YOR355W): 0.8 | The level of expressed mRNA in the presence of chemical substance/The level of expressed mRNA in the absence of chemical substance (yeast gene YOR383C): 0.9 | The level of expressed mRNA in the presence of chemical substance/The level of expressed mRNA in the absence of chemical substance (yeast gene YPL089C): 1.8 | The level of expressed mRNA in the presence of chemical substance/The level of expressed mRNA in the absence of chemical substance (yeast gene YPL109C): 1.2 | The level of expressed mRNA in the presence of chemical substance/The level of expressed mRNA in the absence of chemical substance (yeast gene YPL149W): 2.8 | The level of expressed mRNA in the presence of chemical substance/The level of expressed mRNA in the absence of chemical substance (yeast gene YPL154C): 1.2 | The level of expressed mRNA in the presence of chemical substance/The level of expressed mRNA in the absence of chemical substance (yeast gene YPR103W): 0.7 | The level of expressed mRNA in the presence of chemical substance/The level of expressed mRNA in the absence of chemical substance (yeast gene YPR108W): 0.6
